Data taken from patent US20200360391A1, “Medicinal Composition for Treating Intractable Heart Disease” (Osaka University, priority 2016, published 2020).
Read-outs that look alike come from different tables or passages of the source.

Columns and labels:
[1] = tested on: spontaneous dilated cardiomyopathy (J2N-k) hamster model; experiment: Spontaneous dilated cardiomyopathy (J2N-k) hamster model, 8-week administration from 20 weeks of age (Tests 1-3): echocardiography, body weight; conditions: for Minimal effective dose (screening 2): mg/kg twice per day, oral preparation
Procedure: The doses of pharmaceutical products were determined based on the no-observed-adverse-effect levels in a long-term toxicity study using rats. δ-Glycan-deficient spontaneous dilated cardiomyopathy (J2N-k) male hamsters (Japan SLC, Inc.) were delivered at 18 weeks of age. After a 2-week quarantine/acclimation, echocardiography was performed.
Each of the pharmaceutical products (A to K and O) was individually administered twice daily (at an interval of 8 hours or more) by oral gavage, and echocardiography was performed after 4 and 8 weeks (before dissection). Differences from the value before the start of administration (at the time of grouping) (amount of change: Δ) in each group were examined, and the cardiac function (EF value, FS %, etc.) was compared with that in the vehicle group (Group 1). Moreover, the heart was removed […] after the start of administration, and electron microscopy and RNA protein measurement were performed. Specimens for immunopathology were also collected and evaluated.
Each pharmaceutical product was individually suspended in 0.5% CMC-Na (sodium carboxymethylcellulose; Wako Pure Chemical Industries, Ltd.) before use, and administered. […] To Group 1 (control), 0.5% CNC-Na (vehicle) was administered.
Each pharmaceutical product was individually suspended in 0.5% CMC-Na (sodium carboxymethylcellulose; Wako Pure Chemical Industries, Ltd.) before use, and administered. Test substance G was suspended in distilled water before use, and administered.
Reason the doses were set (assuming that the adult body weight was 60 kg, the same amounts as the maximum clinical doses were set) • 1) The clinical dose of C (ozagrel; OZ) was 200 mg twice per day. The dose was thus set to 3.3 mg/kg twice per day. • 2) The clinical dose of D (cilostazol; CS) was 100 mg twice per day. The dose was thus set to 1.7 mg/kg twice per day. • 3) The clinical dose of E (pirfenidone; PF) was 600 mg three times per day, i.e., 1800 mg/day in total. The dose was thus set to 15 mg/kg twice per day. • 4) The clinical dose of G (nintedanib sulfonate; OB) was 150 mg twice per day. The dose was thus set to 2.5 mg/kg twice per day. • 5) The clinical dose of P (carvedilol; CV) was 10 mg twice per day. The dose was thus set to 0.17 mg/kg twice per day. • 6) Preparation 2 (PLGA⋅MS preparation of camostat; B⋅MS): the clinical dose of active substance camostat was 200 mg three times per day, i.e., 600 mg/day in total; thus, intermittent subcutaneous administration at a daily dose of 10 mg/kg once every 4 weeks, twice in total was set. The dose was 1/28 of the total oral dose amount.
The dose volume in oral administration was 5 mL/kg (the amount of liquid to be administered to each animal was calculated based on the most recent body weight), and administered by oral gavage using a polypropylene disposable syringe and a rat stomach tube.
The administration period of each pharmaceutical product was 8 weeks.

[2] = tested on: spontaneous dilated cardiomyopathy J2N-k baby hamsters; experiment: J2N-k baby hamsters (Test 4): administration alone or in combination, echocardiography, body weight; type: in vivo, hamster; conditions: for % FS / EF (%) / value of change in E.F. compared with E.F. at 0 W / value of change in F.S. compared with F.S. at 0 W: Test 4, dose O 0.17, C 3.3, E 15, orally twice daily, mean ± S.D.
Procedure: δ-Glycan-deficient spontaneous dilated cardiomyopathy (J2N-k) male hamsters (Japan SLC, Inc.) were delivered at 4 weeks of age. After a 1-week quarantine/acclimation, echocardiography was performed. The hamsters were grouped by stratified random assignment based on the EF values and the body weights so that each administration group was equalized.
Each test substance was individually administered twice daily (at an interval of 8 hours or more) by oral gavage, and echocardiography was performed 4 and 8 weeks after the start of administration (before dissection). Differences from the value before the start of administration (at the time of grouping) (amount of change: A) in each group were examined, and the cardiac function (EF value, FS %, etc.) was compared with that in the vehicle group (Group 1).
The doses were set according to the dose-setting basis in Test 3, and similarly orally administered twice daily. Effects of administration of combinations of two or three of carvedilol, which is a β-blocker widely used clinically, and ozagrel and/or pirfenidone were examined.

rats [3] = conditions: cited from earlier work; for No-observed-adverse-effect level: rats; for Dose at which toxic findings were observed: duration per compound
[4] = tested on: BLM-induced mouse pulmonary fibrosis model; conditions: cited from earlier work
[5] = cited from earlier work
rats [6] = experiment: Repeated oral administration toxicity study in rats (dose-setting basis); conditions: mg/kg twice per day, oral preparation
Source text: The dose-setting basis for the doses of the test substances used in pharmacological tests is as described below.

[7] = tested on: rat coronary artery complete ischemia model; experiment: Model of ischemia (MI) by rat coronary artery complete ligation (Tests 1 and 2): echocardiography, body weight; conditions: for value of change in E.F. compared with E.F. on Day 1 / value of change in F.S. compared with F.S. on Day 1: B-MS 100, C-MS 50, F-MS 30 mg/kg s.c. single injection
[8] = Test 1, p.o. b.i.d., NOAEL-based dose
[9] = MI Test 1, NOAEL doses, 7 Day, mean ± S.D.
[10] = MI Test 1, NOAEL doses, 14 Day, mean ± S.D.
[11] = MI Test 1, NOAEL doses, 29 Day, mean ± S.D.
[12] = Test 2, p.o. b.i.d., NOAEL-based dose
[13] = MI Test 2, 14 Day, B 150, G 5, I 30, C 10 mg/kg p.o. b.i.d., mean ± S.D.
[14] = MI Test 2, 29 Day, B 150, G 5, I 30, C 10 mg/kg p.o. b.i.d., mean ± S.D.

Cc1ccc(=O)n(-c2ccccc2)c1 [Compound E, Pirfenidone]
Body weight 0 W ([1]; Test 1, at grouping): 116.1 g | LVIDd 4 W ([1]; Test 1, p.o. b.i.d.): 6.9 mm | LVIDd 8 W ([1]; Test 1, p.o. b.i.d.): 7.3 mm | LVIDs 4 W ([1]; Test 1, p.o. b.i.d.): 5.7 mm | LVIDs 8 W ([1]; Test 1, p.o. b.i.d.): 6.1 mm | Body weight 1 W [1, 8]: 116.3 g | Body weight 2 W [1, 8]: 118.3 g | Body weight 3 W [1, 8]: 119.5 g | Body weight 4 W [1, 8]: 121.4 g | LVIDs 8 W ([1]; Test 1, p.o. b.i.d., listed as pirfenidone): significantly lower | Cardiac function (EF, FS %) actual measured value and/or amount of change compared with control, 8 W value ([1]; Test 3, clinical dose): significant cardiac function improvement effect | Cardiac function (EF, FS %) actual measured value or change rate compared with control, 4 W value ([1]; Test 3, clinical dose): significant cardiac function improvement effect | Cardiac function improvement effect ([1]; Test 3, clinical dose, summary): cardiac function improvement effect was observed | Minimal effective dose (screening 2) [1]: 15 mg/kg | Body weight 0 W ([2]; Test 4, at grouping): 71.7 g | % FS ([2]; 0 W (start of administration)): 39.0 ± 3.0% | EF (%) ([2]; 0 W (start of administration)): 77.1 ± 3.4% | % FS ([2]; 4 W): 34.1 ± 1.9% | EF (%) ([2]; 4 W): 71.3 ± 2.4% | value of change in E.F. compared with E.F. at 0 W ([2]; 4 W): <−5.8 ± 1.9> % | value of change in F.S. compared with F.S. at 0 W ([2]; 4 W): <−4.8 ± 1.7> % | % FS ([2]; 8 W): 29.7 ± 1.8% | EF (%) ([2]; 8 W): 65.2 ± 2.6% | value of change in E.F. compared with E.F. at 0 W ([2]; 8 W): <−11.9 ± 2.8> % | value of change in F.S. compared with F.S. at 0 W ([2]; 8 W): <−9.2 ± 2.4> % | No-observed-adverse-effect level (rats [3]; 1 month): 100 mg/kg | Dose at which toxic findings were observed (rats [3]; repeated oral administration in rats): ≥ 100 mg/kg | Minimal effective dose for antifibrosis ([4]; BLM-induced mouse pulmonary fibrosis model): 30 mg/kg/day | Abdominal / stomach / gastric discomfort cases ([5]; human, in vivo): 14.0% | Abnormal fluctuation in laboratory test values ([5]; human, in vivo): 45.3% | Anorexia cases ([5]; human, in vivo): 23.0% | Light-hypersensitivity cases ([5]; human, in vivo): 51.7% | Nausea cases (cilostazol: nausea/vomiting) ([5]; human, in vivo): 12.1% | γ-GTP elevation cases ([5]; human, in vivo): 20.0% | Cases with side effects (including laboratory test value abnormality) ([5]; share of cases evaluated for safety): 87.9% | Maximum no-observed-adverse-effect level (screening 1) (rats [6]): 50 mg/kg | Action on left ventricular systolic function ([7]; MI Test 1, 28-day repeated oral administration b.i.d., NOAEL-based doses): suppression action on the deterioration of left ventricular systolic function | Body weight ([7]; MI Test 1, NOAEL doses, 1 Day (grouping), mean ± S.D.): 232.0 ± 3.9 g | % FS: value of change compared with the value on Day 1 [7, 9]: 0% | Body weight [7, 9]: 236.7 ± 5.3 g | EF: value of change compared with the value on Day 1 [7, 9]: -1% | % FS: value of change compared with the value on Day 1 [7, 10]: -2% | Body weight [7, 10]: 257.7 ± 10.1 g | EF: value of change compared with the value on Day 1 [7, 10]: -4% | Body weight ([7]; MI Test 1, NOAEL doses, 21 Day, mean ± S.D.): 272.4 ± 10.5 g | % FS: value of change compared with the value on Day 1 [7, 11]: -4% | Body weight [7, 11]: 287.5 ± 16.2 g | EF: value of change compared with the value on Day 1 [7, 11]: -8%

COC(=O)c1ccc2c(c1)NC(=O)/C2=C(\Nc1ccc(N(C)C(=O)CN2CCN(C)CC2)cc1)c1ccccc1 [Compound G, Nintedanib ethanesulfonate]
Body weight 0 W ([1]; Test 2, at grouping): 121.6 g | LVIDd 4 W ([1]; Test 2, p.o. b.i.d.): 6.9 mm | LVIDd 8 W ([1]; Test 2, p.o. b.i.d.): 7.2 mm | LVIDs 4 W ([1]; Test 2, p.o. b.i.d.): 5.7 ± mm | LVIDs 8 W ([1]; Test 2, p.o. b.i.d.): 6.1 ± mm | % FS 4 W [1, 12]: significantly higher | % FS value of change at 4 W compared with 0 W [1, 12]: significantly higher | Body weight 1 W [1, 12]: 121.3 g | Body weight 2 W [1, 12]: 122.0 g | Body weight 3 W [1, 12]: 123.8 g | Body weight 4 W [1, 12]: 126.1 g | Body weight 5 W [1, 12]: 127.1 g | Body weight 7 W [1, 12]: 129.2 g | Body weight 8 W [1, 12]: 128.9 g | EF 4 W [1, 12]: significantly higher | LVIDs 8 W ([1]; Test 2, p.o. b.i.d., listed as nintedanib): significantly lower | Cardiac function (EF, FS %) actual measured value and/or amount of change compared with control, 8 W value ([1]; Test 3, clinical dose): significant cardiac function improvement effect | Minimal effective dose (screening 2) [1]: 2.5 mg/kg | No-observed-adverse-effect level (rats [3]; 6 months): 5 mg/kg | Dose at which toxic findings were observed (rats [3]; repeated administration in rats): 20 mg/kg/day | Inhibitory effect on pulmonary fibrosis, 60 mg/kg versus 30 mg/kg ([4]; prophylactic administration Day 0 to Day 14, once daily oral gavage): slightly higher inhibitory effect on pulmonary fibrosis | Dose with apparent effect on both inflammation and fibrosis ([4]; therapeutic administration Day 7 to Day 21, once daily oral gavage): 60 mg/kg | Abdominal pain cases ([5]; human, in vivo): 10.2% | Diarrhea cases ([5]; human, in vivo): 53.6% | Elevated AST (GOT) and/or ALT (GPT) / liver enzyme cases ([5]; human, in vivo): 10.5% | Nausea cases (cilostazol: nausea/vomiting) ([5]; human, in vivo): 19.1% | Maximum no-observed-adverse-effect level (screening 1) (rats [6]): 5 mg/kg | EF actual measured value and/or amount of change compared with control ([7]; MI Test 2, Day 14 and Day 29): significantly higher | Values of cardiac function (EF, FS %) compared with control ([7]; MI Test 2, oral b.i.d. 4 weeks or single subcutaneous administration): significantly higher | Body weight ([7]; MI Test 2, 1 Day, B 150, G 5, I 30, C 10 mg/kg p.o. b.i.d., B MS 100, C MS 50, I MS 30 mg/kg s.c. single injection, mean): 240.9 g | Body weight ([7]; MI Test 2, 7 Day, B 150, G 5, I 30, C 10 mg/kg p.o. b.i.d., B MS 100, C MS 50, I MS 30 mg/kg s.c. single injection, mean): 248.1 g | Body weight ([7]; MI Test 2, 14 Day, B 150, G 5, I 30, C 10 mg/kg p.o. b.i.d., B MS 100, C MS 50, I MS 30 mg/kg s.c. single injection, mean): 273.9 g | value of change in E.F. compared with E.F. on Day 1 [7, 13]: <−6.2 ± 1.8> % | value of change in F.S. compared with F.S. on Day 1 [7, 13]: <−3.4 ± 1.1> % | Body weight ([7]; MI Test 2, 21 Day, B 150, G 5, I 30, C 10 mg/kg p.o. b.i.d., B MS 100, C MS 50, I MS 30 mg/kg s.c. single injection, mean): 290.5 g | Body weight ([7]; MI Test 2, 29 Day, B 150, G 5, I 30, C 10 mg/kg p.o. b.i.d., B MS 100, C MS 50, I MS 30 mg/kg s.c. single injection, mean): 311.0 g | value of change in E.F. compared with E.F. on Day 1 [7, 14]: <−11.0 ± 2.7> % | value of change in F.S. compared with F.S. on Day 1 [7, 14]: <−5.8 ± 3.6> %
